Laboratory results: ChEMBL document CHEMBL4732125, “Structures/cytotoxicity/selectivity relationship of natural steroidal saponins against GSCs and primary mechanism of tribulosaponin A” (Eur J Med Chem, 2021)
Calls of active or inactive are those of the source. No cut-off for these calls is given here.

Legend:
GSC-3 [1] = test: (§1) Cytotoxicity against human GSC3 cells assessed as reduction in cell viability after 72 hrs by MTS assay; format: functional, cell-based
GSC-18 [2] = test: (§2) Cytotoxicity against human GSC18 cells assessed as reduction in cell viability after 72 hrs by MTS assay; format: functional, cell-based
GSC-3 [3] = test: Inhibition of colony formation in human GSC-3 cells assessed as tumor spheres damage at 15 uM after 2 weeks by crystal violet staining based assay; format: functional, cell-based
GSC-18 [4] = test: Inhibition of colony formation in human GSC-18 cells assessed as tumor spheres damage at 15 uM after 2 weeks by crystal violet staining based assay; format: functional, cell-based
GSC-3 [5] = test: Inhibition of colony formation in human GSC-3 cells assessed as decrease in number of tumor spheres at 15 uM after 2 weeks by crystal violet staining based assay; format: functional, cell-based
GSC-18 [6] = test: Inhibition of colony formation in human GSC-18 cells assessed as decrease in number of tumor spheres at 15 uM after 2 weeks by crystal violet staining based assay; format: functional, cell-based
[7] = as §1; format: functional, cell-based; details: GSC-3, 72 h
[8] = as §2; format: functional, cell-based, GSC-18; details: GSC18, 72 h
HEK-293T [9] = test: Cytotoxicity against human 293T cells assessed as reduction in cell viability after 72 hrs by MTS assay; format: cell-based; details: for IC50: Homo sapiens, HEK-293T
HUVEC [10] = test: Cytotoxicity against HUVEC assessed as reduction in cell viability after 72 hrs by MTS assay; format: cell-based, Homo sapiens; details: for IC50: Homo sapiens, HUVEC
T98G [11] = test: Cytotoxicity against human T98G assessed as reduction in cell viability after 72 hrs by MTS assay; format: cell-based
U-87 MG [12] = test: Cytotoxicity against human U-87 MG cells assessed as reduction in cell viability after 72 hrs by MTS assay; format: cell-based, U-87MG ATCC
GSC-3 [13] = test: Cytotoxicity against human GSC3 cells assessed as inhibition of cell growth at 20 uM after 5 days; format: functional, cell-based; details: time 5.0 day
GSC-18 [14] = test: Cytotoxicity against human GSC18 cells assessed as inhibition of cell growth at 20 uM after 5 days; format: functional, cell-based; details: time 5.0 day
T98G [15] = test: Cytotoxicity against human T98G cells assessed as inhibition of cell growth at 20 uM after 5 days; format: cell-based; details: 120 h, time 5 day
U-87 MG [16] = test: Cytotoxicity against human U-87 MG cells assessed as inhibition of cell growth at 20 uM after 5 days; format: cell-based; details: u-87mg atcc, 120 h, time 5 day
HEK-293T [17] = test: Cytotoxicity against human 293T cells assessed as inhibition of cell growth at 20 uM after 5 days; format: cell-based; details: 120 h, time 5 day
HUVEC [18] = test: Cytotoxicity against HUVEC assessed as inhibition of cell growth at 20 uM after 5 days; format: cell-based; details: human, 120 h, time 5 day

Row | SMILES | Activity (GSC-3 [1]) | Activity (GSC-18 [2]) | IC50 [7] [µM] | IC50 [8] [µM] | IC50 (HEK-293T [9]) [µM] | IC50 (HUVEC [10]) [µM] | further results
1 | C[C@@H]1O[C@@H](O[C@H]2[C@H](O[C@H]3CC[C@@]4(C)C(=CC[C@H]5[C@@H]6C[C@@H]7O[C@@]8(OC[C@H](CO)CC8O[C@H]8O[C@@H](CO)[C@H](O)[C@@H](O)[C@@H]8O)[C@@H](C)[C@@H]7[C@@]6(C)CC[C@@H]54)C3)O[C@H](CO)[C@@H](O[C@@H]3O[C@@H](C)[C@H](O)[C@@H](O)[C@H]3O)[C@@H]2O)[C@H](O)[C@H](O)[C@H]1O (stereo partly specified) | inactive | inactive |  |  |  |  | 
2 | Cn1nnc2c(C(N)=O)ncn2c1=O |  |  |  |  |  |  | Activity (GSC-3 [3]): Active; Activity (GSC-18 [4]): Active; inhibition (GSC-3 [5]): Active; inhibition (GSC-18 [6]): Active
3 | C[C@@H]1CC[C@@]2(OC1)O[C@H]1C[C@H]3[C@@H]4CC=C5C[C@@H](O[C@@H]6O[C@H](CO)[C@@H](O[C@@H]7O[C@@H](C)[C@H](O)[C@@H](O)[C@H]7O)[C@H](O)[C@H]6O[C@@H]6O[C@@H](C)[C@H](O)[C@@H](O)[C@H]6O)CC[C@]5(C)[C@H]4CC[C@]3(C)[C@H]1[C@@H]2C | Active | Active |  |  |  |  | 
4 | C[C@H](CC[C@@]1(O)O[C@H]2C[C@H]3[C@@H]4CC=C5C[C@@H](O[C@@H]6O[C@H](CO)[C@@H](O[C@@H]7O[C@@H](C)[C@H](O)[C@@H](O)[C@H]7O)[C@H](O)[C@H]6O[C@@H]6O[C@@H](C)[C@H](O)[C@@H](O)[C@H]6O)CC[C@]5(C)[C@H]4CC[C@]3(C)[C@H]2[C@@H]1C)CO[C@@H]1O[C@H](CO)[C@@H](O)[C@H](O)[C@H]1O |  |  | 1.03 | 1.09 | 3.22 | 3.22 | 
5 | CC(=O)O[C@H]1C(=O)[C@@]2(C)[C@H]([C@H](OC(=O)c3ccccc3)[C@]3(O)C[C@H](OC(=O)[C@H](O)[C@@H](NC(=O)c4ccccc4)c4ccccc4)C(C)=C1C3(C)C)[C@]1(OC(C)=O)CO[C@@H]1C[C@@H]2O [PACLITAXEL] |  |  | 11.3 | 9.6 | 0.01 | 0.005 | IC50 (T98G [11]; Homo sapiens, T98G): 0.012 µM; IC50 (U-87 MG [12]; Homo sapiens, U-87 MG): 0.008 µM; Activity (GSC-3 [13]): Active; Activity (GSC-18 [14]): Active; Activity (T98G [15]): Toxic; Activity (U-87 MG [16]): Toxic; Activity (HEK-293T [17]): Toxic; Activity (HUVEC [18]): Toxic
6 | C[C@@H]1CC[C@@]2(OC1)O[C@H]1C[C@H]3[C@@H]4CC=C5C[C@@H](O[C@@H]6O[C@H](CO)[C@@H](O)[C@H](O)[C@H]6O[C@@H]6O[C@@H](C)[C@H](O)[C@@H](O)[C@H]6O)CC[C@]5(C)[C@H]4CC[C@]3(C)[C@H]1[C@@H]2C [OPHIOPOGONIN C] |  |  | 0.78 | 0.78 |  |  | Activity (HEK-293T [9]; human, hek-293t, time 72 hrs): Non-Toxic; Activity (HUVEC [10]; human, huvec, time 72 hrs): Non-Toxic; Activity (T98G [11]; human, t98g, time 72 hrs): Non-Toxic; Activity (U-87 MG [12]; human, u-87mg atcc, time 72 hrs): Non-Toxic
7 | CO[C@]1(CC[C@@H](C)CO[C@@H]2O[C@H](CO)[C@@H](O)[C@H](O)[C@H]2O)O[C@H]2C[C@H]3[C@@H]4CC=C5C[C@@H](O[C@@H]6O[C@H](CO)[C@@H](O[C@@H]7O[C@@H](C)[C@H](O)[C@@H](O)[C@H]7O)[C@H](O)[C@H]6O[C@@H]6O[C@@H](C)[C@H](O)[C@@H](O)[C@H]6O)CC[C@]5(C)[C@H]4CC[C@]3(C)[C@H]2[C@@H]1C [METHYLPROTODIOSCIN] |  |  | 1.82 | 1.82 |  |  | 
8 | C[C@@H]1CC[C@@]2(OC1)O[C@H]1C[C@H]3[C@@H]4CC=C5C[C@@H](O[C@@H]6O[C@H](CO)[C@@H](O[C@@H]7O[C@@H](C)[C@H](O[C@@H]8O[C@@H](C)[C@H](O)[C@@H](O)[C@H]8O)[C@@H](O)[C@H]7O)[C@H](O)[C@H]6O[C@@H]6O[C@@H](C)[C@H](O)[C@@H](O)[C@H]6O)CC[C@]5(C)[C@H]4CC[C@]3(C)[C@H]1[C@@H]2C [PENNOGENIN RAHAMNOSYL CHACOTRIOSIDE] | inactive | inactive |  |  | 1.83 | 1.83 | 
